According to paper PMC12310023 (PLOS Neglected Tropical Diseases, 2025):

Tests used:
[1] = Mouse plasma, brain and GI exposure PK, Balb/c, 30 mg/kg PO; settings: 6 h, after BKI-1708
AT2 = target: T1, AT2 (Homo sapiens, UniProt P50052); experiment: Cerep binding assay
T1 construct: Cerep (Eurofins, France)

[2] = Plasma protein binding, equilibrium dialysis; settings: bovine
CYP1A1 = experiment: CYP Induction Assay in dog hepatocytes; settings: 30 and 100 μM, 48 h
hERG = hERG (Homo sapiens, UniProt Q12809); experiment: cell-based
5-HT2B = target: T2, 5-HT2B (Homo sapiens, UniProt P41595); experiment: Cerep binding assay; settings: agonist radioligand, mean, read-out: % inhibition of control specific binding
T2 construct: Cerep (Eurofins, France)

A3 = target: T3, A3 (Homo sapiens, UniProt P0DMS8); experiment: Cerep cellular and nuclear receptor functional assay
T3 sequence (P0DMS8 1-318): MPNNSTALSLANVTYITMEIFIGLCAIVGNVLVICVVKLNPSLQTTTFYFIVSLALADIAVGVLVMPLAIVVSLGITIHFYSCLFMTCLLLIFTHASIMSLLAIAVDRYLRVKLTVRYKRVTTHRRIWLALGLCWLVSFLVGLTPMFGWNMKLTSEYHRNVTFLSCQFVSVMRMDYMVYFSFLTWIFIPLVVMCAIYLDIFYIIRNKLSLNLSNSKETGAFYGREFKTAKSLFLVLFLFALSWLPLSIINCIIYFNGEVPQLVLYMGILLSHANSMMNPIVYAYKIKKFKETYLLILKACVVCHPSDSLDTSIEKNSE

[3] = Plasma levels in IFNγ-KO mouse efficacy model
C. parvum CDPK1 = C. parvum CDPK1 (Cryptosporidium parvum, UniProt A3FQ16); experiment: CpCDPK1 enzyme inhibition; type: biochemical
Excerpt: […]. […] All other methods are specified in S1 File.

[4] = tested on: panel of 71 common liability targets; experiment: Cerep panel of 71 common liability targets; type: binding; settings: read-out: IC50s, all Cerep targets except AT2
CYP3A4 [5] = target: T4, CYP3A4 (Homo sapiens, UniProt P08684); experiment: CYP reaction phenotyping, recombinant supersomes
[6] = Monkey PK (r15 PO 1, r16 IV 1 mg/kg); type: in vivo
[7] = tested on: micronuclei in interphase cells; experiment: In vitro micronucleus (IVMN) test
CYP2C8 = target: T5, CYP2C8 (Homo sapiens, UniProt P10632); experiment: CYP reaction phenotyping, recombinant supersomes
T5 sequence (P10632 1-490): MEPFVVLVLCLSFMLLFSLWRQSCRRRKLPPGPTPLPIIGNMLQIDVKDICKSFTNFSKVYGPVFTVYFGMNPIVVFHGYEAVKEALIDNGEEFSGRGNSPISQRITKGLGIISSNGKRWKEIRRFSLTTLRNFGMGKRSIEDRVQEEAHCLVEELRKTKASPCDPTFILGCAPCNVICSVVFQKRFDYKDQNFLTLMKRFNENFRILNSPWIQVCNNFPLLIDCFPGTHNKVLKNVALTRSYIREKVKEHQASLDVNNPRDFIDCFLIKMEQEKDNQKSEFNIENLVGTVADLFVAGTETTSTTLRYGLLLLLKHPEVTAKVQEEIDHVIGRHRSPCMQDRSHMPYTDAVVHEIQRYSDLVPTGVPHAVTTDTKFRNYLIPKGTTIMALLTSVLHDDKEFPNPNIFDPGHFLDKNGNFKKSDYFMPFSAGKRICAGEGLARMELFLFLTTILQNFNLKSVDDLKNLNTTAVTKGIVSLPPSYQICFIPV

[8] = HCT-8 host cell count (Calibr); settings: human
Cav1.2 (L-type) = Cav1.2 (L-type) (Homo sapiens, UniProt Q13936); experiment: Bioprofiling panel functional assay; type: cell-based; settings: 6 pt dilutions starting at 10 μM; read-out: IC50, antagonist readout
CYP2B6 = target: T6, CYP2B6 (Homo sapiens, UniProt P20813); experiment: in vitro; settings: recombinant CYP2B6 supersomes
T6 sequence (P20813 1-491): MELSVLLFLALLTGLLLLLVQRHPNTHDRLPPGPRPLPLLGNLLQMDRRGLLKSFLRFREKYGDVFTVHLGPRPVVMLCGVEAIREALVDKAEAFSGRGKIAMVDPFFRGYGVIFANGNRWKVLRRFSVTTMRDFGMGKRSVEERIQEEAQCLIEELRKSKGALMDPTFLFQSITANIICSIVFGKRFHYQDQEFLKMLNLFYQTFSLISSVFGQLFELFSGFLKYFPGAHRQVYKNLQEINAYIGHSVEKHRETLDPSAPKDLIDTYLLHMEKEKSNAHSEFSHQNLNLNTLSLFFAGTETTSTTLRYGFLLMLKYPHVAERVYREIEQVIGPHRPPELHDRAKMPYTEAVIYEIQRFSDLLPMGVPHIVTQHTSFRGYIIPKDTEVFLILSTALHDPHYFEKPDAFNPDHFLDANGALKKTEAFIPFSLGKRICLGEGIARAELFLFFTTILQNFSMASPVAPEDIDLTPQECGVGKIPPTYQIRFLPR

[9] = Plasma protein binding, equilibrium dialysis; settings: dog
Cytotoxicity = settings: human, CRL-8155 B-lymphocyte cell line
CYP3A4 [10] = target: T4, CYP3A4; experiment: biochemical

T4 sequence (P08684 whole entry): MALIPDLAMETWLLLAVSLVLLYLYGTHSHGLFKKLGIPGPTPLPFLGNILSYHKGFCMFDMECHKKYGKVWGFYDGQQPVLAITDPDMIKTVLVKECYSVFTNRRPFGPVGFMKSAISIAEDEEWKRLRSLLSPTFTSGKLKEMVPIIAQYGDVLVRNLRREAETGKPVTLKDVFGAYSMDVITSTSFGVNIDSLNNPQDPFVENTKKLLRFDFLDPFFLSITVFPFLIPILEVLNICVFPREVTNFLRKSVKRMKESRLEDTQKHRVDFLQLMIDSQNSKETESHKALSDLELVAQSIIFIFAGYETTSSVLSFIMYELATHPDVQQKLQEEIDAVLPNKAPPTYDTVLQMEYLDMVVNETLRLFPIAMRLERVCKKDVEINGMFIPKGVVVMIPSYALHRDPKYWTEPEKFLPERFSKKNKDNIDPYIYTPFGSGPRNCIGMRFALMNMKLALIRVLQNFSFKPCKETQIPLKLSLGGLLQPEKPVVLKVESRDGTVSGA
T1 sequence (P50052 whole entry): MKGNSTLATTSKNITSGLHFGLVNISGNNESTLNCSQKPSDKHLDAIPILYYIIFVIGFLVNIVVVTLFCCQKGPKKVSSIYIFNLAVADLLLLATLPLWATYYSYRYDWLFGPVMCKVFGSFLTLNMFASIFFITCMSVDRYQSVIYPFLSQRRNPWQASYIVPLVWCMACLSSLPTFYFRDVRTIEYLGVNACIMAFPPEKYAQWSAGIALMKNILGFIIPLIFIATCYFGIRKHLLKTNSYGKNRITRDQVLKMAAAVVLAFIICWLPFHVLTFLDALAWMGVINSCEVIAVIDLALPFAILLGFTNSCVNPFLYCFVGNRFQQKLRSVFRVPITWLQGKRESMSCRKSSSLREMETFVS
Sequence of C. parvum CDPK1 (A3FQ16 1-538): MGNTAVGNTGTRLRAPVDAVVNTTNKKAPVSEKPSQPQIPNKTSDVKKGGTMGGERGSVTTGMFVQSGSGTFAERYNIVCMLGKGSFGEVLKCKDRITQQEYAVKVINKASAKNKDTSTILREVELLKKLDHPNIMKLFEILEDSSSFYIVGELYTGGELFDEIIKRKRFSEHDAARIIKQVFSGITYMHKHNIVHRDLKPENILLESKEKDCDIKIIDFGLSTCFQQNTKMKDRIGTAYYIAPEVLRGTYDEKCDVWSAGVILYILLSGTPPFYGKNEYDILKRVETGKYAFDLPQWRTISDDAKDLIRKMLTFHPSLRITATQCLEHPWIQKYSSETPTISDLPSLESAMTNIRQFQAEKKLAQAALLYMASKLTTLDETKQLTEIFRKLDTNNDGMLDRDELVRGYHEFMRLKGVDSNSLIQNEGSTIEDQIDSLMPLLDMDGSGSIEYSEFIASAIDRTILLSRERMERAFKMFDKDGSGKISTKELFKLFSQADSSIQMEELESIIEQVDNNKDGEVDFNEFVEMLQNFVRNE
Sequence of hERG (Q12809 whole entry): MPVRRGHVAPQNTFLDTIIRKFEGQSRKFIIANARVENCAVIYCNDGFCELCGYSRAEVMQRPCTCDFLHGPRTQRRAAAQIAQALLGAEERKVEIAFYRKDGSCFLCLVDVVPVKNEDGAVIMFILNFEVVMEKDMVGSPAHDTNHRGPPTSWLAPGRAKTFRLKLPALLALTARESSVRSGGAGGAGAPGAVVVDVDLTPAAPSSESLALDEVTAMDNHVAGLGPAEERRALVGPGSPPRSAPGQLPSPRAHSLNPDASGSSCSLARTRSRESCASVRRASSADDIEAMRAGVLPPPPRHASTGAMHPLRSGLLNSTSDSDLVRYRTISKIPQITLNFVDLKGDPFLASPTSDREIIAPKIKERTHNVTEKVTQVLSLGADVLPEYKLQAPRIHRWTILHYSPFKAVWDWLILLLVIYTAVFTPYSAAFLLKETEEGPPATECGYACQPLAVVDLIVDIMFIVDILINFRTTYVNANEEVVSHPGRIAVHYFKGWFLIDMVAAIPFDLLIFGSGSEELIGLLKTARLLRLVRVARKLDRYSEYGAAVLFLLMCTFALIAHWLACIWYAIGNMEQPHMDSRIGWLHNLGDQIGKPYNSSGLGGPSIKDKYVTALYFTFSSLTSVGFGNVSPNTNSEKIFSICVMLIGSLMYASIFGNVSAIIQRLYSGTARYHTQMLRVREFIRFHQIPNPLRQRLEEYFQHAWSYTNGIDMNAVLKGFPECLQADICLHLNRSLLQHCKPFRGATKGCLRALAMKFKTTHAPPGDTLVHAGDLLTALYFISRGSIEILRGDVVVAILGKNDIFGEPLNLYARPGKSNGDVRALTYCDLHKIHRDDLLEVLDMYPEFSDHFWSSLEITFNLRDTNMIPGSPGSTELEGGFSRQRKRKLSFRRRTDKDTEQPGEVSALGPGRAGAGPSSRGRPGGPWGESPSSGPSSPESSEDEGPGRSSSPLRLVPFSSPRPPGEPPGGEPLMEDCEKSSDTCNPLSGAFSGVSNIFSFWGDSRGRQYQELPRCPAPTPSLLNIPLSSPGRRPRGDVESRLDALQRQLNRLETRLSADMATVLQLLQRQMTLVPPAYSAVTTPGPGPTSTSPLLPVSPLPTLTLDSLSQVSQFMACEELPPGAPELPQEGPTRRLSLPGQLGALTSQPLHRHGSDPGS
T2 sequence (P41595 whole entry): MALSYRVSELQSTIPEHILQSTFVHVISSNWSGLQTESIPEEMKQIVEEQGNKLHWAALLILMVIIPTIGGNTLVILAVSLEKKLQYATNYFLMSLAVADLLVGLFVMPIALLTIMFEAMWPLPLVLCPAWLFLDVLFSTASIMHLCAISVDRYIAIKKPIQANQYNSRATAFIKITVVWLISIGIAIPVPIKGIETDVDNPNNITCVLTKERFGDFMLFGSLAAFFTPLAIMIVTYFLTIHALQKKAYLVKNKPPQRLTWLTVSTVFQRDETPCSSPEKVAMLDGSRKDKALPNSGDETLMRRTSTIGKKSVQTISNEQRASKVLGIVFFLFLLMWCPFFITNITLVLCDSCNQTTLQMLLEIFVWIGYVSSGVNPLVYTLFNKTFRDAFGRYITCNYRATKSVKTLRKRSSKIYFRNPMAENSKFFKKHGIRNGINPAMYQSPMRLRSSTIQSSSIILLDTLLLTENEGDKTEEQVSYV

SMILES: CC1(C)Cn2nc(-c3ccc4cc(OC5CC5)ccc4c3)c(C(N)=O)c2NC1O (stereo not drawn) [M2]
- M2 peak level in jejunum, ileum, cecum/colon [1]: > 1 µM
- IC50 (AT2): 4.6 µM
- inhibition at 10 µM (AT2; 10 μM, agonist radioligand, mean, read-out: % inhibition of control specific binding): 50.7%
- fraction unbound [2]: 0.05
- induction of CYP1A1 (CYP1A1): strong inducers
- IC50 (hERG): 6.2 µM
- inhibition at 10 µM (5-HT2B): 57.1%
- EC50 (A3): > 10 µM
- IC50 (A3): 43 µM
- peak plasma exposure ([3]; M2 8 mg/kg x 3 days): 3.0 ± 1.0 µM
- peak plasma level ([3]; M2 15 mg/kg x 3 days): 6.8 ± 1.2 µM
- peak plasma level ([3]; M2 30 mg/kg x 3 days): 7.7 ± 3.6 µM
- IC50 (C. parvum CDPK1): 0.0925 µM
- fold reduction in potency compared to BKI-1708 (C. parvum CDPK1): 132 fold
- IC50 [4]: > 10 µM
- % contribution (CYP3A4 [5]): 47.9%
- CLint (CYP3A4 [5]): 0.141 µL/min/pmol
- M2 AUC0-inf (Mouse PK, IFNγ-KO BL6; after BKI-1708 IV 3 mg/kg): 792 ± 18 µmol·min/L
- M2 AUC0-inf (Mouse PK, IFNγ-KO BL6; after BKI-1708 PO 15 mg/kg): 5948 ± 1398 µmol·min/L
- M2 AUC0-inf ([6]; after BKI-1708 IV 1 mg/kg): 63 ± 9 µmol·min/L
- M2 AUC0-inf ([6]; after BKI-1708 PO 1 mg/kg): 58 ± 13 µmol·min/L
- IVMN test result [7]: negative
- % contribution (CYP2C8): 0.0%
- CLint (CYP2C8): <0.029 µL/min/pmol
- CC50 ([8]; CC50, HCT-8 cells infected with BGF Cp, Replicate 1): > 25 µM
- CC50 ([8]; CC50, HCT-8 cells infected with BGF Cp, Replicate 2): > 25 µM
- CC50 ([8]; CC50, HCT-8 cells infected with Ch, Replicate 1): > 25 µM
- CC50 ([8]; CC50, HCT-8 cells infected with Ch, Replicate 2): > 25 µM
- CC50 ([8]; CC50, HCT-8 cells infected with UA Nluc Cp, Replicate 1): > 25 µM
- CC50 ([8]; CC50, HCT-8 cells infected with UA Nluc Cp, Replicate 2): > 25 µM
- IC50 (Cav1.2 (L-type)): 8.1 µM
- CLint scaled (CYP2B6): 0.35 mL/min/kg
- half-life (CYP2B6): 2.65 h
- fraction unbound [9]: 0.1
- CC50 (Cytotoxicity): 15.6 µM
- IC50 (CYP3A4 [10]): > 40 µM
